Molecules are shown by their SMILES. Converted amounts (≈) assume the structure as drawn. Read-outs that look alike come from different tables or passages of the source.

Experiment [1] relates to P. aeruginosa PAO1 and efflux-defective PAO750. The experiment can be described thus: MIC, P. aeruginosa laboratory strains. The settings on record: Pseudomonas aeruginosa. In kind it is cell-based. The procedure: (§1) Minimum inhibitory concentration (MIC) values were determined according to the Clinical Laboratory Standards Institute guidelines. Frequency of resistance was determined by plating ~5 × 10^8 bacterial cells on agar-solidified media plates containing test compound at concentrations corresponding to four times the measured solid-media MIC of the strains. Colonies were counted after 24 h, restreaked onto media containing the same concentration of compound, and the MIC remeasured against the assayed compound. Genomic DNA from isolated clones was sequenced by paired-end sequencing on an Illumina MiSeq device. Complete experimental details available in SI Appendix. […]
Minimum inhibitory concentration (MIC) determination. Broth microdilution and agar dilution
MIC assays were conducted according to CLSI guidelines (M07-2012). Appropriate inoculation
suspension density was assessed using a Sensititre Nephelometer with a Sensititre 0.5
(§2) McFarland Standard. […]

Experiment [2] deals with clinical MDR E. coli isolates. The experiment can be described thus: MIC, clinical multi-drug resistant E. coli isolates. Particulars: Escherichia coli. The class given is cell-based. The procedure: as §1
(§3) Minimum inhibitory concentration (MIC) determination. Broth microdilution and agar dilution MIC assays were conducted according to CLSI guidelines (M07-2012). Appropriate inoculation suspension density was assessed using a Sensititre Nephelometer with a Sensititre 0.5 […]
as §2
(§4) Whole-genome sequencing and data analysis. Genomic DNA of selected clones was prepared using an Epicentre MasterPure Complete DNA Purification Kit. Whole-genome sequencing libraries were prepared using an Illumina Nextera XT Library Preparation Kit. The libraries were sequenced using an Illumina MiSeq device with a V3 600-cycle reagent kit. Whole-genome sequencing data was analyzed using CLC Genomics Workbench Version 11. To determine the genotype of MDR strains from the ENABLE strain collection, de novo assembled contigs were […]

A further experiment relates to E. coli ATCC 25922. The experiment can be described thus: Frequency of resistance and agar MIC, E. coli. The settings on record: Escherichia coli, ATCC25922, read-out: Agar MIC E. coli ATCC 25922. The class given is cell-based. The procedure:
as §1
Minimum inhibitory concentration (MIC) determination. […] Appropriate inoculation suspension density was assessed using a Sensititre Nephelometer with a Sensititre 0.5 […]
Frequency of Resistance. Frequency of resistance was assessed by spread plating between […] cfu of a freshly-grown culture of the strain of interest on plates containing a concentration of compound corresponding to 4 times the MIC of the strain (as determined by agar-dilution MIC). […] The frequency of resistance was determined by dividing the number of colonies obtained on the selective plates after 24 hours of growth by the calculated total population plated. […]

The subject of experiment [3] is K. pneumoniae ATCC 13883 (EN0006) and selected mutants. The experiment can be described thus: MIC of mutants from frequency of resistance experiments. The class given is cell-based. Particulars: for MIC EN0006: ATCC 13883 parent; for MIC EN0006 / MIC CH10219: lpxH wild-type; for MIC CH10218: lpxH F128L; for MIC CH10218 / MIC CH10220 / MIC CH10221 / MIC CH10219: selected against EBL-3647; for MIC CH10206 / MIC CH10220: lpxH F141S; for MIC CH10206 / MIC CH10205 / MIC CH10207: selected against EBL-3599; for MIC CH10205 / MIC CH10207 / MIC CH10221: lpxH R80H; for MIC CH10219: ramR A40V. The method, then: as §1, §3, §2
Frequency of Resistance. Frequency of resistance was assessed by spread plating between […] cfu of a freshly-grown culture of the strain of interest on plates containing a concentration of compound corresponding to 4 times the MIC of the strain (as determined by agar-dilution MIC). Serial dilutions of the same cultures were plated on non-selective media to determine the number of cells plated. The frequency of resistance was determined by dividing the number of colonies obtained on the selective plates after 24 hours of growth by the calculated total population plated. Typically 4 independently grown cultures were used to initiate 4 separate experiments, and the total combined number of obtained colonies and plated populations were used for calculations. Isolated colonies from selection plates were re-streaked on an additional plate containing the same concentration of compound used in the original selection. Clones were saved at -80 °C for subsequent analysis.
as §4

Another experiment has as its system PaLpxH. The experiment can be described thus: PaLpxH enzyme inhibition compared to EcLpxH. In kind it is biochemical, P. aeruginosa. Particulars: PaLpxH vs EcLpxH.
[4] abbreviates: PAO1, read-out: MIC P. aeruginosa PAO1.
The mark [5] stands for this setting: PAO1, read-out: MIC P. aeruginosa PAO750.

One may read the MIC as the least concentration at which growth counts as inhibited. For `Cc1cc(C#N)nc(N2CCN(S(=O)(=O)c3ccc(NC(=O)c4cc(CN5CC(CN)C5)ccc4N(C)S(C)(=O)=O)cc3)CC2)n1` [EBL-3647], the MIC in experiment [1] (setting [4]) was greater than 64 µg/mL; in experiment [1] (setting [5]), 64 µg/mL (≈ 95.8 µM); in experiment [2] (read-out: MIC E. coli EN0134), 2 µg/mL (≈ 2.99 µM); in experiment [2] (read-out: MIC E. coli EN0135), 2 µg/mL (≈ 2.99 µM); in experiment [2] (read-out: MIC E. coli EN0136), 4 µg/mL (≈ 5.99 µM); in experiment [2] (read-out: MIC E. coli EN0137), 2 µg/mL (≈ 2.99 µM). For the same molecule, the minimal inhibitory concentration (MIC) in experiment [2] (read-out: MIC E. coli EN0138) worked out at 4 µg/mL (≈ 5.99 µM); in experiment [2] (read-out: MIC E. coli EN0139), 4 µg/mL (≈ 5.99 µM); in experiment [2] (read-out: MIC E. coli EN0303) it was 16 µg/mL (≈ 24 µM); in experiment [2] (read-out: MIC E. coli EN0481) it was 1 µg/mL (≈ 1.5 µM); with E. coli ATCC 25922, 2 µg/mL (≈ 2.99 µM). For the same molecule, the MIC EN0006 in experiment [3] came to 1 µg/mL. The MIC CH10218 in experiment [3] worked out at 32 µg/mL. For the same molecule, the MIC CH10206 in experiment [3] was greater than 64 µg/mL. The MIC CH10220 in experiment [3] is greater than 64 µg/mL. Also, the MIC CH10205 in experiment [3] was 32 µg/mL. Also, the MIC CH10207 in experiment [3] amounted to 32 µg/mL. The MIC CH10221 in experiment [3] was greater than 64 µg/mL. Besides, the MIC CH10219 in experiment [3] was 8 µg/mL. For the same molecule, the “Factor of decrease in inhibitory effect on PaLpxH compared to EcLpxH” value with PaLpxH was greater than 10.

For `Cc1cc(C#N)nc(N2CCN(S(=O)(=O)c3ccc(NC(=O)c4cc(CNCCCN)ccc4N(C)S(C)(=O)=O)cc3)CC2)n1.Cl.Cl` [EBL-3599], the MIC in experiment [1] (setting [4]) is greater than 64 µg/mL; in experiment [1] (setting [5]), 64 µg/mL; in experiment [2] (read-out: MIC E. coli EN0134) it was 2 µg/mL; in experiment [2] (read-out: MIC E. coli EN0135) it was 2 µg/mL; in experiment [2] (read-out: MIC E. coli EN0136) it was 2 µg/mL; in experiment [2] (read-out: MIC E. coli EN0137), 4 µg/mL. In addition, the MIC in experiment [2] (read-out: MIC E. coli EN0138) turned out to be 2 µg/mL; in experiment [2] (read-out: MIC E. coli EN0139), 4 µg/mL; in experiment [2] (read-out: MIC E. coli EN0303), 16 µg/mL; in experiment [2] (read-out: MIC E. coli EN0481) it was 2 µg/mL; in the experiment on E. coli ATCC 25922 it was 2 µg/mL. For the same molecule, the MIC EN0006 in experiment [3] turned out to be 1 µg/mL. The MIC CH10218 in experiment [3] was 64 µg/mL. Further, the MIC CH10206 in experiment [3] was greater than 64 µg/mL. In experiment [3], the MIC CH10220 was greater than 64 µg/mL. Also, the MIC CH10205 in experiment [3] worked out at 32 µg/mL. The MIC CH10207 in experiment [3] turned out to be 32 µg/mL. Further, the MIC CH10221 in experiment [3] is greater than 64 µg/mL. Further, the MIC CH10219 in experiment [3] was 8 µg/mL. In addition, the “Factor of decrease in inhibitory effect on PaLpxH compared to EcLpxH” value in the experiment with PaLpxH is greater than 10.

The record behind these values is publication PMC11009625, “Antibiotic class with potent in vivo activity targeting lipopolysaccharide synthesis in Gram-negative bacteria” (Proceedings of the National Academy of Sciences of the …, 2024).
